The IC50 is the concentration needed to halve the response being measured.

This experiment deals with T1, Tyrosine-protein phosphatase non-receptor type 1 (Homo sapiens, UniProt P18031).
T1 sequence (P18031 whole entry): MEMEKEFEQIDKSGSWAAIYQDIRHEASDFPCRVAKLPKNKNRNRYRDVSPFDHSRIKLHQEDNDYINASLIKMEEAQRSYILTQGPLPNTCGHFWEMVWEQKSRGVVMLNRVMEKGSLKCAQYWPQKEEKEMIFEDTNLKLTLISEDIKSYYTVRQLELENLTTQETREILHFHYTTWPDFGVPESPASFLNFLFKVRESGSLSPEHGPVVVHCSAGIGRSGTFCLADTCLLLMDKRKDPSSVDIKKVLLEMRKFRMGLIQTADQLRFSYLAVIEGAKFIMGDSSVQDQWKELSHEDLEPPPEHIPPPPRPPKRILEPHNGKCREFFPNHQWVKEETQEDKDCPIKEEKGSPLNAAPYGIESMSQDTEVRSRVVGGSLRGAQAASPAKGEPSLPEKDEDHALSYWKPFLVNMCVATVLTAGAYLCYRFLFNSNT

The structures appear in SMILES notation.

Regarding `CC1(C)C=Cc2c(O)ccc(-c3cc4ccc(O)cc4o3)c2O1`, the IC50 turned out to be 62.7 µM. With `CC1(C)C=Cc2c(ccc(-c3cc4ccc(O)cc4o3)c2O)O1`, the concentration for half-maximal inhibition (IC50) was determined as 64.9 µM.

The molecule `COc1ccc2cc(-c3ccc(O)cc3OC)oc2c1` returned an IC50 of 74.1 µM.

Molecule `CC(C)=CCc1c(O)ccc(-c2cc3ccc(O)cc3o2)c1O` [2'-O-DEMETHYLBIDWILLOL B] displayed a 50% inhibitory concentration (IC50) of 13.6 µM. In turn, `COc1cc(O)c(CC=C(C)C)cc1-c1cc2ccc(O)cc2o1` [ADDISOFURAN A] displayed an IC50 of 17.5 µM.

In turn, `COc1cc(O)ccc1-c1cc2cc(CC=C(C)C)c(O)cc2o1` [ADDISOFURAN B] had an IC50 of 15.7 µM.

(Values after ChEMBL document CHEMBL1149531, “Inhibitory effect of 2-arylbenzofurans from Erythrina addisoniae on protein tyrosine phosphatase-1B” (Bioorg Med Chem Lett, 2007).)
